From US10392389B2, “Heterocyclic compounds for the inhibition of PASK” (BioEnergenix, LLC, priority 2012, dated 2019) come the findings set out here.

In experiment [1] the target is T1, PASK (UniProt #Q96RG2; human recombinant N-terminal GST tagged construct, residues 879-1323) (Homo sapiens, UniProt Q96RG2).
T1 construct: N-terminal GST tagged construct, residues 879-1323; GST (N); host or cells: insect cells
In words: PASK ATP Radiochemical Assay. In kind it is biochemical. To be noted: 33P-ATP, Myelin Basic Protein substrate, read-out: IC50 Kinase Domain. Here is the method:
Biochemical Assay for hPASK Activity
PASK ATP Radiochemical Assay
(§1) Purified PASK (UniProt #Q96RG2; human recombinant N-terminal GST tagged construct, residues 879-1323) from insect cells (final concentration 5 nM) is added to freshly prepared Base Reaction Buffer containing 20 mM HEPES (pH 7.5), 10 mM MgCl2, 1 mM EGTA, 0.02% Brij35, 0.02 mg/ml BSA, 0.1 mM Na3VO4, 2 mM DTT, 1% DMSO and Myelin Basic Protein (20 μM final). Test compounds in DMSO are then added and the mixture, followed by delivery of ^33P-ATP (specific activity 0.01 μCi/μl final) to initiate the reaction. The kinase reaction is incubated for 120 min at room temperature. The entire reaction mixture is washed through onto a P81 Phosphocellulose paper and washed three times for 10 minutes in 75 mM phosphoric acid and once in methanol prior to drying and scintillation counting.

Experiment [2] concerns the target T2, PASK (Invitrogen) (Homo sapiens, UniProt Q96RG2).
T2 construct: IC50 Kinase Domain; purchased Invitrogen
In words: PAS Kinase FRET Assay. In kind it is biochemical. To be noted: PAS kinase TR-FRET assay (665 nm/615 nm); read-out: IC50 Kinase Domain. The method in brief: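 PASK phosphorylates a ULight-peptide with ATP in 50 mM HEPES, 10 mM MgCl2, 1 mM EGTA, 0.01% Tween-20, 2 mM DTT for 2 h at 25° C in the dark. Compounds are added as 4× serial dilutions (top 12×10^−5 M at 4×). After stopping, an Eu anti-phospho-substrate antibody is added for 1 h and TR-FRET is read at 665/615 nm.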
(In TR-FRET formats the signal depends on donor and acceptor labels being close together.)

Experiment [3] addresses T3, CK2a2 (NP_001887; human full-length protein, GST tagged) (Homo sapiens, UniProt P19784).
T3 construct: human full-length protein, GST tagged; GST; host or cells: insect cells
In words: Biochemical Assay for CK2 Activity. To be noted: 33P-ATP radiochemical assay, CK2 sub [RRRDDDSDDD]. Here is the method:
Biochemical Assay for CK2 Activity
as §1, with “Purified CK2a2 (NP_001887;” for “Purified PASK (UniProt #Q96RG2;”, “human full-length protein,” for “human recombinant N-terminal”, “GST tagged)” for “GST tagged construct, residues 879-1323)”, “concentration 1.2” for “concentration 5”, “mM Hepes” for “mM HEPES”, “and CK2 sub [RRRDDDSDDD]” for “and Myelin Basic Protein”

Experiment [4] concerns the target T4, PIM1 (NP_002639; human full-length protein, 6×His tagged) (Homo sapiens, UniProt P11309).
T4 construct: human full-length protein, 6×His tagged; 6xHis; host or cells: insect cells
In words: Biochemical Assay for PIM1 Activity. To be noted: 33P-ATP radiochemical assay, S6K/Rsk2 peptide 2 substrate. The protocol:
Biochemical Assay for PIM1 Activity
as §1, with “Purified PIM1 (NP_002639;” for “Purified PASK (UniProt #Q96RG2;”, “human full-length protein, 6×His tagged)” for “human recombinant N-terminal GST tagged construct, residues 879-1323)”, “concentration 1.0” for “concentration 5”, “mM Hepes” for “mM HEPES”, “and substrate S6K/Rsk2 peptide 2 [KKRNRTLTK]” for “and Myelin Basic Protein”, “activity 10” for “activity 0.01”

The structures appear in SMILES notation.

T2 sequence (Q96RG2 999-1251 limits assumed): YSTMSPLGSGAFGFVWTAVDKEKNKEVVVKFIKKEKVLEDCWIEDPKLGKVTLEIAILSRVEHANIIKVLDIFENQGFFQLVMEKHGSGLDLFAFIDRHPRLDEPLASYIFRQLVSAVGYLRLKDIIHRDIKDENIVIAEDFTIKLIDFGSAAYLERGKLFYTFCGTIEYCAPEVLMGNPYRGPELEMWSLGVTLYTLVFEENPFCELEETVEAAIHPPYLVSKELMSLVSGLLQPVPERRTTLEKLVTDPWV
T4 sequence (P11309 whole entry): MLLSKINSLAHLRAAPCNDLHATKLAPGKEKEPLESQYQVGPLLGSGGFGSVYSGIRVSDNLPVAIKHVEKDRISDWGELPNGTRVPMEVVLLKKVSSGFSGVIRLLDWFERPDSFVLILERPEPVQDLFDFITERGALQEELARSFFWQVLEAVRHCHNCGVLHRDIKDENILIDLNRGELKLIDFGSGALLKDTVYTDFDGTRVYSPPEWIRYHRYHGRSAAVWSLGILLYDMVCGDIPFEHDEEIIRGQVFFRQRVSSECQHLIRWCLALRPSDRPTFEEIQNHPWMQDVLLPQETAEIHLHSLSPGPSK
T3 sequence (P19784 whole entry): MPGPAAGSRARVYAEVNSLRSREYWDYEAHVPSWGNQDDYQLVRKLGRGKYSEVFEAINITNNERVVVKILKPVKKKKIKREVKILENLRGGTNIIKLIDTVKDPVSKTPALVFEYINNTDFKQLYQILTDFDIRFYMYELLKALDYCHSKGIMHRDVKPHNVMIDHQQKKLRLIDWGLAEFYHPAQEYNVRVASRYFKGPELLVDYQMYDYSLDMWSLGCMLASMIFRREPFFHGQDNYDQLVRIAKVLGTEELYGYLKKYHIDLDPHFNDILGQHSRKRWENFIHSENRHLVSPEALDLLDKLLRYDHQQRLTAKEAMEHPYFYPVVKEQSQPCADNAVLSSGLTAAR
T1 sequence (Q96RG2 879-1323, stated change not applied): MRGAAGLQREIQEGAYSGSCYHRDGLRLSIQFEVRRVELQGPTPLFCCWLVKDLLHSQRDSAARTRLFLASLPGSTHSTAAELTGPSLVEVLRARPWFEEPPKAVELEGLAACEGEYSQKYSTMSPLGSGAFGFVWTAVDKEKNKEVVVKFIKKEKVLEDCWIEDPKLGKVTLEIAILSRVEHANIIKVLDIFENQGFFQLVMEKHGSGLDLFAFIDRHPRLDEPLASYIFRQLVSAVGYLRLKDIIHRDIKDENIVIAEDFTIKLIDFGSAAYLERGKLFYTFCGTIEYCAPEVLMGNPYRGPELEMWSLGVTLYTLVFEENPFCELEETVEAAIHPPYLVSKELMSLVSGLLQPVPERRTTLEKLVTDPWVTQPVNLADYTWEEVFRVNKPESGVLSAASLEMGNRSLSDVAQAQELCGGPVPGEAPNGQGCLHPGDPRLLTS

One may read the IC50 as the point on the concentration scale where inhibition reaches its midpoint. `CCn1nccc1-c1cnn2c(=O)cc(-c3ccc(Cl)c(OC)c3)[nH]c12` [Example 65, 5-(4-chloro-3-methoxyphenyl)-3-(1-ethyl-1H-pyrazol-5-yl)pyrazolo[1,5-a]pyrimidin-7(4H)-one]: the IC50 in experiment [1], in experiment [2], in experiment [3] and in experiment [4] was no more than 10 µM each time.
As for `CCn1nccc1-c1cnn2c(=O)cc(-c3ccc(Cl)cc3)[nH]c12` [Example 66, 5-(4-chlorophenyl)-3-(1-ethyl-1H-pyrazol-5-yl)pyrazolo[1,5-a]pyrimidin-7(4H)-one], the IC50 in experiment [1], in experiment [2], in experiment [3] and in experiment [4] was no more than 10 µM in each case.
As for `CCn1nccc1-c1cnn2c(=O)cc(-c3ccc4c(cnn4CC)c3)[nH]c12` [Example 67, 5-(1-ethyl-1H-indazol-5-yl)-3-(1-ethyl-1H-pyrazol-5-yl)pyrazolo[1,5-a]pyrimidin-7(4H)-one], the 50% inhibitory concentration (IC50) in experiment [1], in experiment [2], in experiment [3] and in experiment [4] was no more than 10 µM throughout.
Take `COc1cc(-c2cc(=O)n3ncc(-c4cc(C)n[nH]4)c3[nH]2)ccc1Cl` [Example 69, 5-(4-chloro-3-methoxyphenyl)-3-(3-methyl-1H-pyrazol-5-yl)pyrazolo[1,5-a]pyrimidin-7(4H)-one]: the IC50 in experiment [1], in experiment [2], in experiment [3] and in experiment [4] was no more than 10 µM in each case.
`O=c1cc(-c2ccc(Cl)c(Cl)c2)[nH]c2c(-c3cc[nH]n3)cnn12` [Example 70, 5-(3,4-dichlorophenyl)-3-(1H-pyrazol-3-yl)pyrazolo[1,5-a]pyrimidin-7(4H)-one]: the IC50 in experiment [1], in experiment [2], in experiment [3] and in experiment [4] was no more than 10 µM each time.
For the compound `Cn1ncc2cc(-c3cc(=O)n4ncc(-c5cc[nH]n5)c4[nH]3)ccc21` [Example 71, 5-(1-methyl-1H-indazol-5-yl)-3-(1H-pyrazol-3-yl)-4H,7H-pyrazolo[1,5-a]pyrimidin-7-one], the IC50 in experiment [1], in experiment [2], in experiment [3] and in experiment [4] was no more than 10 µM each time.
Turning to `Cn1ncc2cc(-c3cc(=O)n4ncc(-c5ncco5)c4[nH]3)ccc21` [Example 73, 5-(1-methyl-1H-indazol-5-yl)-3-(oxazol-2-yl)-4H,7H-pyrazolo[1,5-a]pyrimidin-7-one], the 50% inhibitory concentration (IC50) in experiment [1], in experiment [2], in experiment [3] and in experiment [4] was no more than 10 µM each time.
For `Cc1noc(-c2cnn3c(=O)cc(-c4ccc5c(cnn5C)c4)[nH]c23)n1` [Example 74, 3-(3-methyl-1,2,4-oxadiazol-5-yl)-5-(1-methyl-1H-indazol-5-yl)-4H,7H-pyrazolo[1,5-a]pyrimidin-7-one], the IC50 in experiment [1], in experiment [2], in experiment [3] and in experiment [4] was no more than 10 µM throughout.
As for `COc1cc(-c2cc(=O)n3ncc(-c4ccnn4C)c3[nH]2)ccc1F` [Example 79, 5-(4-fluoro-3-methoxyphenyl)-3-(1-methyl-1H-pyrazol-5-yl)pyrazolo[1,5-a]pyrimidin-7(4H)-one], the concentration for half-maximal inhibition (IC50) in experiment [1], in experiment [2], in experiment [3] and in experiment [4] was no more than 10 µM each time.
As to `Cn1ccc(-c2cnn3c(=O)cc(-c4ccc5c(cnn5C)c4)[nH]c23)n1` [Example 83, 5-(1-methyl-1H-indazol-5-yl)-3-(1-methyl-1H-pyrazol-3-yl)pyrazolo[1,5-a]pyrimidin-7(4H)-one], the half-inhibitory concentration (IC50) in experiment [1], in experiment [2], in experiment [3] and in experiment [4] was no more than 10 µM in each case.
Take `CCn1ncc2cc(-c3cc(=O)n4ncc(-c5n[nH]cc5C)c4[nH]3)ccc21` [Example 84, 5-(1-ethyl-1H-indazol-5-yl)-3-(4-methyl-1H-pyrazol-3-yl)-4H,7H-pyrazolo[1,5-a]pyrimidin-7-one]: the IC50 in experiment [1], in experiment [2], in experiment [3] and in experiment [4] was no more than 10 µM each time.
In the case of `CCn1ncc2cc(-c3cc(=O)n4ncc(-c5c(C)cnn5C)c4[nH]3)ccc21` [Example 85, 3-(1,4-dimethyl-1H-pyrazol-5-yl)-5-(1-ethyl-1H-indazol-5-yl)-4H,7H-pyrazolo[1,5-a]pyrimidin-7-one], the IC50 in experiment [1], in experiment [2], in experiment [3] and in experiment [4] was no more than 10 µM each time.
As for `CCn1ncc2cc(-c3cc(=O)n4ncc(-c5cc(C)no5)c4[nH]3)ccc21` [Example 86, 5-(1-ethyl-1H-indazol-5-yl)-3-(3-methylisoxazol-5-yl)pyrazolo[1,5-a]pyrimidin-7(4H)-one], the IC50 in experiment [1], in experiment [2], in experiment [3] and in experiment [4] was no more than 10 µM in each case.
For the compound `CCn1ncc2cc(-c3cc(=O)n4ncc(-c5oncc5C)c4[nH]3)ccc21` [Example 87, 5-(1-ethyl-1H-indazol-5-yl)-3-(4-methyl-1,2-oxazol-5-yl)-4H,7H-pyrazolo[1,5-a]pyrimidin-7-one], the IC50 in experiment [1], in experiment [2], in experiment [3] and in experiment [4] was no more than 10 µM in each case.
`Cc1cnc(-c2cnn3c(=O)cc(-c4ccc5onc(C)c5c4)[nH]c23)o1` [Example 91, 5-(3-methylbenzo[d]isoxazol-5-yl)-3-(5-methyloxazol-2-yl)pyrazolo[1,5-a]pyrimidin-7(4H)-one]: the 50% inhibitory concentration (IC50) in experiment [1], in experiment [2], in experiment [3] and in experiment [4] was no more than 10 µM in each case.
Take `CCn1nccc1-c1cnn2c(=O)cc(-c3ccc4c(cnn4C)c3)[nH]c12` [Example 93, 3-(1-ethyl-1H-pyrazol-5-yl)-5-(1-methyl-1H-indazol-5-yl)pyrazolo[1,5-a]pyrimidin-7(4H)-one]: the 50% inhibitory concentration (IC50) in experiment [1], in experiment [2], in experiment [3] and in experiment [4] was no more than 10 µM each time.
With `CCn1nccc1-c1cnn2c(=O)cc(-c3ccc(Cl)c(OCC(F)(F)F)c3)[nH]c12` [Example 94, 5-(4-chloro-3-(2,2,2-trifluoroethoxy)phenyl)-3-(1-ethyl-1H-pyrazol-5-yl)pyrazolo[1,5-a]pyrimidin-7(4H)-one], the IC50 in experiment [1], in experiment [2], in experiment [3] and in experiment [4] was no more than 10 µM throughout.
`CCn1nccc1-c1cnn2c(=O)cc(-c3ccc(Cl)c(Cl)c3)[nH]c12` [Example 95, 5-(3,4-dichlorophenyl)-3-(1-ethyl-1H-pyrazol-5-yl)pyrazolo[1,5-a]pyrimidin-7(4H)-one]: the IC50 in experiment [1], in experiment [2], in experiment [3] and in experiment [4] was no more than 10 µM in each case.
As for `Cn1ccc(-c2cnn3c(=O)cc(-c4ccc(Cl)c(OCC(F)(F)F)c4)[nH]c23)n1` [Example 96, 5-(4-chloro-3-(2,2,2-trifluoroethoxy)phenyl)-3-(1-methyl-1H-pyrazol-3-yl)pyrazolo[1,5-a]pyrimidin-7(4H)-one], the IC50 in experiment [1] is no more than 10 µM; in experiment [2], no more than 10 µM; in experiment [3] it was greater than 10 µM; in experiment [4] it was no more than 10 µM.
